Results on two molecules are retold here after article PMC5597475 (Molecular imaging and biology : MIB : the official …, 2017).

The term IC50 denotes the concentration that gives 50% inhibition.

In test [1] the target is LRRK2 (Homo sapiens, UniProt Q5S007). It counts as binding.
In test [2] the target is LRRK2 (Rattus norvegicus, UniProt F1LNJ1). The settings on record: IC50 for displacement of [^3H]LRRK2-IN-1 binding, rat kidney; 10 nM radioligand.
For the next test, the system named is mutant G2019S type LRRK2. The following applies: cited from earlier work.
The subject of another test is WT (wild-type) LRRK2. The settings on record: cited from earlier work.
Test [3] addresses LRRK2 (Mus musculus, UniProt Q5S006). Description: In vivo blocking study: [^3H]LRRK2-IN-1 co-administered with Pf-06447475 in mice. The settings on record: for % blocking (max.) of [^3H]LRRK2-IN-1 uptake: 10 mg/kg Pf-06447475, 10 mg/kg.
The target in another test is LRRK2 kinase. The settings on record: LRRK2 kinase inhibitor; cited from earlier work.

Chain of LRRK2 (Mus musculus, UniProt Q5S006) (Q5S006 whole entry): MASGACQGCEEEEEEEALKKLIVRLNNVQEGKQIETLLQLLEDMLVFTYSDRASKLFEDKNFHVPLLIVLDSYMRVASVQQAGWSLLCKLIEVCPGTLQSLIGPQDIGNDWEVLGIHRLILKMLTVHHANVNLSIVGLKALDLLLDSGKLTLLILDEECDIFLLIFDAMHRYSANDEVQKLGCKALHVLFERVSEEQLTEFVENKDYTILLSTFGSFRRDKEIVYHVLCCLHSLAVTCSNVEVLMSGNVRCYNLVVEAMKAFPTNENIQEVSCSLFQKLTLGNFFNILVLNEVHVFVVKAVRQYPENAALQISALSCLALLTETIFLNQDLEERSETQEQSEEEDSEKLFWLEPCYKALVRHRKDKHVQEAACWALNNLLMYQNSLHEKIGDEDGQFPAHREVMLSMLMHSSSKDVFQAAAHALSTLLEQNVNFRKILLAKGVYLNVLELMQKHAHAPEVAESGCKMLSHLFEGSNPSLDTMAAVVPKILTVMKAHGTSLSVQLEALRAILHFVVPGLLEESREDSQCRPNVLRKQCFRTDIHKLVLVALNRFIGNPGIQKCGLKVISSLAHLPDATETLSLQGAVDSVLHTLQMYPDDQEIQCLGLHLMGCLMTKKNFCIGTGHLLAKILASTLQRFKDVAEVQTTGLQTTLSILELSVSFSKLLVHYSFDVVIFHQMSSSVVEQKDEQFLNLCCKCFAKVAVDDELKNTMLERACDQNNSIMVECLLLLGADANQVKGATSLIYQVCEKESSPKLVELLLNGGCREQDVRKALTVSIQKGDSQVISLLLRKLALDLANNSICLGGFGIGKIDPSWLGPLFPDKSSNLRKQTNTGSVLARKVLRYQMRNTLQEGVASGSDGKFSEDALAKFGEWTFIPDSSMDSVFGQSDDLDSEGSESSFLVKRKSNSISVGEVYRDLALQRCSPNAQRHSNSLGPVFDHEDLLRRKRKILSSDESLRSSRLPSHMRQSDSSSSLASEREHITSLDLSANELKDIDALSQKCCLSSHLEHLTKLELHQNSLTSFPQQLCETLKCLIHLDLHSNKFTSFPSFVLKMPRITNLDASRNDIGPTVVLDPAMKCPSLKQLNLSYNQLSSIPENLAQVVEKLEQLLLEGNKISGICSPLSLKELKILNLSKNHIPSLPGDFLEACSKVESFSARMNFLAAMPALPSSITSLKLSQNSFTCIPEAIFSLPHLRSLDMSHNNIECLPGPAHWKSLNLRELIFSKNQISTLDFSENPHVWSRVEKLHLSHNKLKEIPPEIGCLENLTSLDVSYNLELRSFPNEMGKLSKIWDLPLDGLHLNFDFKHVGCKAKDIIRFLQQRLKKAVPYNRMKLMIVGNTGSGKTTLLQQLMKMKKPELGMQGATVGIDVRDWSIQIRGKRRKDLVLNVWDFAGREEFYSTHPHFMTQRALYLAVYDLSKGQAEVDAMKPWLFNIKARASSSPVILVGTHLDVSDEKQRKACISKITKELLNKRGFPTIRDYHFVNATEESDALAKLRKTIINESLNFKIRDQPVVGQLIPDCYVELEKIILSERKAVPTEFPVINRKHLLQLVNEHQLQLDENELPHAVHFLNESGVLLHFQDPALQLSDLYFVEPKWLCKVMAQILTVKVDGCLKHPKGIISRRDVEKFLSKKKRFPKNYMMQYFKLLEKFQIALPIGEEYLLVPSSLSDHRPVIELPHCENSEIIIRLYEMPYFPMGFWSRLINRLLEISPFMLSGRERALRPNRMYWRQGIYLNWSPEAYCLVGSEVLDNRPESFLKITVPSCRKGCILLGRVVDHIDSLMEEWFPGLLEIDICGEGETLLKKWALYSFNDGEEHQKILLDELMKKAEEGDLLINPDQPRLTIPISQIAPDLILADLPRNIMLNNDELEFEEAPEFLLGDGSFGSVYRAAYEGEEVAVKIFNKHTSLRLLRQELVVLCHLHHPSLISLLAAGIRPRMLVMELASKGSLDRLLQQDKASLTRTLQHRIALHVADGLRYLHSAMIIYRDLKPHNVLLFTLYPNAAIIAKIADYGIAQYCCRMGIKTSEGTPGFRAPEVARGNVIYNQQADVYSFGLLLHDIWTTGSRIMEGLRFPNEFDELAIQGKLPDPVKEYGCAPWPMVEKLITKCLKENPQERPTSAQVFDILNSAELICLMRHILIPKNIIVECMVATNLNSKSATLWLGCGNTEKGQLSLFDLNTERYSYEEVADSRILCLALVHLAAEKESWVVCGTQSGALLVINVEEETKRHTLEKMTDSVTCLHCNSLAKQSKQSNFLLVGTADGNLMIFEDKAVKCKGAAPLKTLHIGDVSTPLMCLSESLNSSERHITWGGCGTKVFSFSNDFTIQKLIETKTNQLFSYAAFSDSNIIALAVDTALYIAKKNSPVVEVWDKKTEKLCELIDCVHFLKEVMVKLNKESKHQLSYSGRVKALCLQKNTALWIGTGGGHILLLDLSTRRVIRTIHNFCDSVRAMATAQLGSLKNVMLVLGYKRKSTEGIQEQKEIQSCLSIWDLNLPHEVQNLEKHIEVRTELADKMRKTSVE
Chain of LRRK2 (Rattus norvegicus, UniProt F1LNJ1) (F1LNJ1 1-2526): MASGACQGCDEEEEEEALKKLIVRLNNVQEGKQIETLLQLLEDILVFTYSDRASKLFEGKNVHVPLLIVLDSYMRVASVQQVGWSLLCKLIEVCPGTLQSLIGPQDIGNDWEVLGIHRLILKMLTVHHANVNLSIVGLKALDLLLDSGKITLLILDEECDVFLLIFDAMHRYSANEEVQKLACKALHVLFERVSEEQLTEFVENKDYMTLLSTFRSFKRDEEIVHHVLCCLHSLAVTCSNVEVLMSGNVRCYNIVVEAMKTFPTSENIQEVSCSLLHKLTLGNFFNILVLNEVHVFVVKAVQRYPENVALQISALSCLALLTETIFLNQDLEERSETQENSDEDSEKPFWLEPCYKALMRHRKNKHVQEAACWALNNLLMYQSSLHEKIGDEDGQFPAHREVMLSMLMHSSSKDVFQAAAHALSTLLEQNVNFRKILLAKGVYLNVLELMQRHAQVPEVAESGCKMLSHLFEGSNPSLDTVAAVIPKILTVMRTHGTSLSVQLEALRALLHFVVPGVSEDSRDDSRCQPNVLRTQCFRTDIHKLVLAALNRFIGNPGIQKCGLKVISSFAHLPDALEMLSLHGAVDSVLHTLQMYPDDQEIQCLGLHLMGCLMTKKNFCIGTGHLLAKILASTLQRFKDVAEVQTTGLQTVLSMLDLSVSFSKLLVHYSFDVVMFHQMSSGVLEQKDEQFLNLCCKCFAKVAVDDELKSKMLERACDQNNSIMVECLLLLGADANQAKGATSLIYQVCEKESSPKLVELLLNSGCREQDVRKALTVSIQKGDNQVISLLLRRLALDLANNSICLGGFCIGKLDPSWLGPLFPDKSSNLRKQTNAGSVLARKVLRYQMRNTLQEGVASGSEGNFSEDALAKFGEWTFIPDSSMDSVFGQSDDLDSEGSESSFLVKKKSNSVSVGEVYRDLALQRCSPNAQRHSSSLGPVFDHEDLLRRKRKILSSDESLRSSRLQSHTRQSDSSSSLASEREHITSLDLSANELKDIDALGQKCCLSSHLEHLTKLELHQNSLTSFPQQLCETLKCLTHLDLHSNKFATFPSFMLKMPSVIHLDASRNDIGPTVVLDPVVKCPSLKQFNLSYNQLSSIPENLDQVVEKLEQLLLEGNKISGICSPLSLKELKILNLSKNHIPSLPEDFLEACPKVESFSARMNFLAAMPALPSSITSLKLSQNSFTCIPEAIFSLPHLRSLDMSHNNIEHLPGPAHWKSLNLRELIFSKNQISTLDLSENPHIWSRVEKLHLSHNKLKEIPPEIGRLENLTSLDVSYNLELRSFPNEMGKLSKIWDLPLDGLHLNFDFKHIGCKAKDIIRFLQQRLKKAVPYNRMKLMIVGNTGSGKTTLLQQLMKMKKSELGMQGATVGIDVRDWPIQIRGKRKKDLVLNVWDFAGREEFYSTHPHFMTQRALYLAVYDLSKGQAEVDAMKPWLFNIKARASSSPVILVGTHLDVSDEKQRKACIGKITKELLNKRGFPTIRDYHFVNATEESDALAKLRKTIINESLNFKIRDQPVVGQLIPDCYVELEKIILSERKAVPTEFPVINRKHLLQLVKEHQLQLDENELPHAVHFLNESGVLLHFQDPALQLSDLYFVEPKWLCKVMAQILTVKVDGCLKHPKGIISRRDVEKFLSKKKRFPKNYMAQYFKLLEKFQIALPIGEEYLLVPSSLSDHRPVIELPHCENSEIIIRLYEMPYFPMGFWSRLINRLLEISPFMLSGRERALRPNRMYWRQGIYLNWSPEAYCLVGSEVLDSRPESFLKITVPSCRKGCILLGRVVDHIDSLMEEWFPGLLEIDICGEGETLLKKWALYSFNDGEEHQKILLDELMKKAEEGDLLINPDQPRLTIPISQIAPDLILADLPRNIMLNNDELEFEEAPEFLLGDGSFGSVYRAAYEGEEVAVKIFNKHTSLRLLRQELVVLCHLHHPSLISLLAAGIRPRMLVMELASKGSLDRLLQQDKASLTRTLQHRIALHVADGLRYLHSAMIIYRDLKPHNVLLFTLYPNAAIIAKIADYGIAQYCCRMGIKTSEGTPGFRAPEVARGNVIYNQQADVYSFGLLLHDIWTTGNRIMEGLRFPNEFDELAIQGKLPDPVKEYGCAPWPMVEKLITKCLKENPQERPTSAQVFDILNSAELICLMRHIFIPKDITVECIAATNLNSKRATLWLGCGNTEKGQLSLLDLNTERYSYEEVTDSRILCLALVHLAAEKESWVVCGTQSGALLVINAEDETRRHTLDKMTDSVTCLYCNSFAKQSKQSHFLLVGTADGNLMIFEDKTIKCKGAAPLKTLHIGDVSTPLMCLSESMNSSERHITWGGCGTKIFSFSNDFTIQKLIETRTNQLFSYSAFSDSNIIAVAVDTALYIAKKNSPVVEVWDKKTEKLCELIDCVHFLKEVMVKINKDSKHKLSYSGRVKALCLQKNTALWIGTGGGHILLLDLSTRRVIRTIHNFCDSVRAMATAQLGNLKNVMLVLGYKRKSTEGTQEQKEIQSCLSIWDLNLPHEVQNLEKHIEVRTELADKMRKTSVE

Consider `COc1cc(C(=O)N2CCC(N3CCN(C)CC3)CC2)ccc1Nc1ncc2c(n1)N(C)c1ccccc1C(=O)N2C` [LRRK2-IN-1], for which the IC50 at LRRK2 [1] was 73 ± 6 nM; on LRRK2 [2], 40 ± 4 nM; in the test with mutant G2019S type LRRK2, 6 nM; in the test with WT (wild-type) LRRK2 it was 13 nM.

As to `N#Cc1cccc(-c2c[nH]c3ncnc(N4CCOCC4)c23)c1` [Pf-06447475, 3-[4-(morpholin-4-yl)-7H-pyrrolo[2,3-d]pyrimidin-5-yl] benzonitrile], the “% blocking (max.) of [^3H]LRRK2-IN-1 uptake” value at LRRK2 [3] (brain) was 62%; at LRRK2 [3] (kidney), 54%. The “Reduction of [^3H]LRRK2-IN-1 uptake” value amounted to 72% at LRRK2 [3] (heart, 10 mg/kg Pf-06447475); 34% at LRRK2 [3] (liver, 10 mg/kg Pf-06447475); 78% at LRRK2 [3] (lung, 10 mg/kg Pf-06447475); 62% on LRRK2 [3] (muscle, 10 mg/kg Pf-06447475); 40% on LRRK2 [3] (spleen, 10 mg/kg Pf-06447475). Moreover, at LRRK2 [3] (in the kidney or brain, 10 mg/kg Pf-06447475), the “Reduction of [^3H]LRRK2-IN-1 uptake (%ID/g)” value is listed as 50–60%. Further, the IC50 at LRRK2 kinase was 3 nM.
